Among the data in ChEMBL document CHEMBL1123177, “1H NMR configurational correlation for retro-inverso dipeptides: application to the determination of the absolute configuration of "enkephalinase" inhibitors. Relationships between stereochemistry and enzyme recognition” (J Med Chem, 1986) are IC50 values, retold here.

This test deals with Neprilysin (Oryctolagus cuniculus) (UniProt P08049). Description: Concentration for 50% inhibition of activity of rabbit kidney enkephalinase.
Chain of Neprilysin (Oryctolagus cuniculus) (P08049 whole entry, looked up): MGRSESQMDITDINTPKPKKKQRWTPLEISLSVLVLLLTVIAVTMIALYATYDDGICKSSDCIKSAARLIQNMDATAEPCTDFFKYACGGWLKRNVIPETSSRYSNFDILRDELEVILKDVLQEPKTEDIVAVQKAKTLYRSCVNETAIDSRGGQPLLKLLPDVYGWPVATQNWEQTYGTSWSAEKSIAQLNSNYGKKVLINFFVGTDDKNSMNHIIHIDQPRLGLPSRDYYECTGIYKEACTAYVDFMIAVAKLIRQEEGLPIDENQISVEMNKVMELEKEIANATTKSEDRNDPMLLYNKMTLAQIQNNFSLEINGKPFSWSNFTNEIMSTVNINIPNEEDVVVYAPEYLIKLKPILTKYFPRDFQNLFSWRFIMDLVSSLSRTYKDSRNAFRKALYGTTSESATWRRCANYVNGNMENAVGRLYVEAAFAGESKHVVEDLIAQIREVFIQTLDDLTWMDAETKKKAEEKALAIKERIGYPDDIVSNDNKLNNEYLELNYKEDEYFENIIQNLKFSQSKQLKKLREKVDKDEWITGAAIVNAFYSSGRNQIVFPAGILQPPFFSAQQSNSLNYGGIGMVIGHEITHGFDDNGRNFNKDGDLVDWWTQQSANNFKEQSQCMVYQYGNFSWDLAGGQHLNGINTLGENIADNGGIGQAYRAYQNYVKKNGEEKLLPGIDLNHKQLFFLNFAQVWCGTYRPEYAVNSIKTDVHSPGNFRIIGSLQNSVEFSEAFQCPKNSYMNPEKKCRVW

For the molecule `O=C(O)CC(=O)NC(CS)Cc1ccccc1` (single isomer, unassigned; 7b), the 50% inhibitory concentration (IC50) (in general, the concentration needed to halve the response being measured) stood at 210 nM. Consider `CC(C)C[C@@H](C(=O)O)C(=O)N[C@H](CS)Cc1ccccc1` (racemic), for which the IC50 was determined as 1.5 nM. As for `C[C@@H](C(=O)O)C(=O)N[C@H](CS)Cc1ccccc1` (racemic), the figure is 0.54 nM; as for `O=C(O)CC(=O)NC(CS)Cc1ccccc1` (single isomer, unassigned; 7a), 2.3 nM; as for `CC(C)C[C@H](C(=O)O)C(=O)N[C@H](CS)Cc1ccccc1`, 0.75 nM. On to `C[C@H](C(=O)O)C(=O)N[C@H](CS)Cc1ccccc1`, for which the concentration for half-maximal inhibition (IC50) stood at 0.65 nM.
